# Test results published in US9611246B2, “Compositions, apparatus, systems, and methods for resolving electronic excited states” (HALLSTAR INNOVATIONS CORP., priority 2012, dated 2017).
# Assays:
# [1] = Singlet oxygen phosphorescence from photoexcited protoporphyrin IX in air saturated DMSO-d6; type: physicochemical
# From the text: Singlet oxygen was generated by pulsed laser excitation in the UV (355 nm) by protoporphyrin IX. Protoporphyrin IX was selected on the basis of its high extinction coefficient (FIG. 2). The solvent DMSO-d6 was selected because of good solubility of the sensitizer and stabilizers. The deuterated form of DMSO was used because of the longer singlet oxygen lifetime in deuterated solvents compared to solvents containing hydrogen. FIG. 10 and FIG. 11 show kinetic traces of singlet oxygen phosphorescence generated from photoexcitation of protoporphyrin IX. […] Excited state quenching of the protoporphyrin IX by the two compounds is unlikely to occur at these low stabilizer concentrations (μM).
# In the previous experiments, singlet oxygen was generated by pulsed laser excitation in the UV spectral region (355 nm) of protoporphyrory IX. […] This was explained by a simple optical screening mechanism, where the compound of Formula I(a)(1) and alkoxy crylene absorb the UV light.
# In this example, laser excitation was performed with visible light at 532 nm, where the compound of Formula I(a)(1) and the alkoxy crylene compound are transparent. […] The absence of singlet oxygen suppression with 532 nm excitation supports the optical screening mechanism with 355 nm excitation. […]
# [2] = UV and visible light absorption spectra of stabilizers; type: physicochemical; settings: acetonitrile
# Experimental: UV and visible light absorption spectra were recorded to investigate to what extent each stabilizer itself absorbs UV light. […] Protoporphyrin IX has weak absorption bands above 450 nm, where the two compounds are transparent (FIG. 2). The compound with the oxygen bridge (Formula II(d)(1)) caused a bathocromic shift of the UV absorption of the lowest energy band. The compound with the sulfur bridge (Formula II(e)(1)) shifted the lowest energy band further into the visible region.
# [3] = Singlet oxygen generation by stabilizers upon direct UV photolysis at 355 nm; type: physicochemical; settings: air saturated CCl4, benzophenone as reference
# Experimental: To investigate to what extent the stabilizers can generate singlet oxygen upon direct UV photolysis, singlet oxygen phosphorescence measurements were performed under photolysis at 355 nm. For these experiments CCl4 was selected as solvent, because of the long lifetime of singlet oxygen in this solvent, which makes these experiments easier to perform. Weak singlet oxygen signals were observed upon photolysis at 355 nm (FIG. 12). Using benzophenone as reference (quantum yield of singlet oxygen generation: 0.35) the low quantum yields of singlet oxygen generation were estimated: compound of Formula I(a)(1): 0.015 and alkoxy crylene: ˜0.001.
# To ensure that the observed weak singlet oxygen signals truly originated from the two compounds and not from possible impurities in the sample or solvent, singlet oxygen phosphorescence excitation spectra were recorded.
# [4] = Solubility in DMSO, PBS buffer and cell culture media; type: physicochemical
# Experimental: All Conjugated fused polycyclic compounds tested (including Formulas II(a)(1), II(b)(1) and II(c)(1), and II(bk)) are highly soluble in DMSO, but poorly soluble in PBS buffer and cell culture medium. Formulas II(b)(1) and II(c)(1) can remain soluble in PBS buffer or cell culture medium if its concentration is less 0.2 mM. At concentrations higher than 0.2 mM, the solution begins to cloud and become emulsion like. This emulsion is able to remain stable for as long as 8 hours. Formula II(bk) is less soluble in PBS buffer and cell culture medium. It was only observed to dissolve in PBS at concentrations of 0.1 mM or less. Similar to Formulas II(b)(1) and II(c)(1), increasing Formula II(bk) concentration above 0.1 mM results in a cloudy emulsion like solution. But this cloudy solution is fairly stable and can be kept for more than 3 days.
# [5] = Singlet oxygen phosphorescence from protoporphyrin IX dimethyl ester in air saturated CDCl3, 532 nm; type: physicochemical; settings: MePPIX 25 μM
# Experimental: Singlet oxygen phosphorescence experiments were performed to investigate if the large differences in triplet quenching rate constants have an impact on the observed singlet oxygen yields. The dimethyl ester derivative of PPIX (MePPIX, Formula IV(c)) was selected as sensitizer, because of better solubility in a solvent with long singlet oxygen lifetime (CDCl3).
# The excited state properties of protoporphyrin IX should not be effected by the methyl ester functionality. Air saturated CDCl3 of MePPIX were excited with a pulsed Nd-YAG laser with visible light at 532 nm, where the stabilizers are mostly transparent. […] The lack of singlet oxygen suppression is consistent with the lack of observable quenching of singlet or triplet excited states of PPIX by alkoxy crylene.
# [6] = tested on: visible light-induced free radicals in pig skin; assay: Visible light-induced free radicals in ALA-treated pig skin by Electron Spin Resonance; settings: for Free Radicals (%): relative to 0 mM; for Free Radicals (a.u.): topical, ALA-treated pig skin
# Experimental: A conjugated fused tricycle compound according to Formula II(a)(1) reduced visible light-induced free radicals in skin by up to 89% and did so in a dose-dependent manner (FIG. 21). The study was conducted using pig skin, which is recognized for its similarity to human skin. Topical application of aminolevulinic acid (ALA) induced the skin to over-produce the endogenous photosensitizer Protoporphyrin IX (PPIX). Solutions of Formula II(a)(1) at different concentrations were then topically applied to the ALA treated skin after which it was exposed to bright green light. The resulting free radical content of the skin was then measured by Electron Spin Resonance (ESR). Studies conducted in solution have shown that Formula II(a)(1) suppresses singlet oxygen production by PPIX. […] The mechanisms of action of Formula II(a)(1) and Tocopherol are different: the former prevents free radicals from forming; the latter scavenges free radicals after they appear.
# [7] = tested on: HaCat cells; assay: Dark toxicity analysis in HaCat cells (no irradiation); type: cell-based, human; settings: 1 mM with ALA, no red light irradiation
# Experimental: To make sure that ALA and conjugated fused polycyclics treatments themselves are not influencing cell viability, (or cause cellular toxicity), dark toxicity analysis was performed. The experiment procedures were exactly same as above for cell viability analysis except that the red light irradiation step was omitted.
λmax [2],extinction coefficient (molar absorptivity) ([2]; at λmax),quantum yield of singlet oxygen generation [3],SMILES,"singlet oxygen phosphorescence ([1]; 355 nm excitation, 250 μM stabilizer)",concentration above which the amount of generated singlet oxygen was reduced ([1]; 532 nm excitation),solubility in PBS buffer and cell culture medium (in words) [4],stability of solution ([4]; 0.05 mM in PBS buffer),precipitation ([4]; one hour after adding to PBS buffer or cell culture medium),suppression of singlet oxygen generation [5],Free Radicals (%) ([6]; 1.25 mM),Free Radicals (a.u.) ([6]; 1.25 mM),Free Radicals (%) ([6]; 2.5 mM),Free Radicals (a.u.) ([6]; 2.5 mM),Free Radicals (%) ([6]; 5 mM),Free Radicals (a.u.) ([6]; 5 mM),Free Radicals (%) ([6]; 10 mM),Free Radicals (a.u.) ([6]; 10 mM),"reduction of visible light-induced free radicals in skin ([6]; dose-dependent, maximum)",free radical reduction compared with Tocopherol ([6]; same conditions),dark toxicity [7]
334 nm,"16,200 M −1 cm −1",0.015,COC(=O)C(C#N)=C1c2ccccc2-c2ccccc21 [Formula I(a)(1)],significantly reduced singlet oxygen phosphorescence,above 3 mM,,,,,,,,,,,,,,,
,,,COC(=O)C(C#N)=C1c2ccccc2C(=O)c2ccccc21 [Formula II(a)(1)],,,especially difficult to dissolve,not observed to be stable for long,almost all Formula II(a)(1) precipitatde,largest suppression,92%,2311 ± 331 a.u.,46%,1162 ± 225 a.u.,11%,270 ± 88 a.u.,19%,475 ± 212 a.u.,up to 89%,superior to Tocopherol,a little toxicity
